This note sets out measurements from patent publication US4160097A, “1-(2-Phenylureylene)imidazoles” (Westwind Pharmaceuticals, Inc., priority 1977, dated 1979).

In brackets after ≈: the same amount, converted by molar mass.

One test relates to Trichophyton rubrum. Kind of test: Antifungal activity, agar dilution method. The format is cell-based, Trichophyton rubrum (ATCC No. 10218 and 14001). The note with it: T. rubrum, read-out: Parts Per Million Inhibitions of T. rubrum. As for the experimental part:
(§1) various compounds of this invention display antifungal and anti-yeast activity.
(§2) In Table IX below are listed the antifungal activity of a number of compounds encompassed in the present invention. These were determined by the agar dilution method as described in Chapters 2 and 3 of Methods in Microbiology, Vol. 7B, edited by J. R. Norris and D. W. Ribbons, Academic Press, New York, 1972.
(In general: In agar dilution, organisms are placed on agar that contains the substance at set levels.)

The subject of test [1] is carrageenan rat paw edema. The test can be described thus: Rat Paw Edema Assay, Oral Dosing. The format is in vivo. To be noted: 4 h, four hours after drug, read-out: % Difference from Control; for change in vivo at 100 mg/kg: 100 mg/kg oral; for change in vivo at 400 mg/kg: 400 mg/kg oral. As for the experimental part: The anti-inflammatory activity of representative compounds of this invention was determined by the rat paw edema assay both by local administration (Table XI below) and by oral dosing (Table XII below). For the oral dosing, the procedure of C. A. Winter, E. A. Risley and G. W. Nuss, Proc. Soc. Exp. Biol. Med. III, 544 (1962) was employed with measurement taken four hours after the drug was administered. The local administration tests were carried out similarly except the irritant (carrageenan) and the test compound were injected simultaneously at time zero.
Tables XI and XII report the anti-inflammatory activity of the compounds tested as % difference in the edema or swelling as compared with the control. These Tables also give the response in many instances of more than one dose level of the same drug.

Test [2] relates to Trichophyton mentagrophytes. Kind of test: Antifungal activity, agar dilution method. It counts as cell-based, Trichophyton mentagrophytes (ATCC No. 8757 and 9129). To be noted: T. mentagrophytes, read-out: Parts Per Million Inhibitions of T. mentagrophytes. As for the experimental part: as §1, §2
The subject of test [3] is humeral or antibody response. The test can be described thus: hemolysin test in mice. The note with it: Mus musculus, sc, dose reducing antibody activity by 50% vs control, read-out: HL(ED50). It counts as in vivo.
For test [4], the system named is cell-mediated immune response to the antigen, Mycobacterium tuberculosis H37Ra. Kind of test: delayed hypersensitivity test. It counts as in vivo, mouse. To be noted: Mus musculus, sc; mice; dose reducing edema of cell-mediated immune response by 60% vs control; read-out: D.H.S. (ED60). As for the experimental part: The immunosuppressant activities of the compounds of this invention were determined via the hemolysin test in mice and by the delayed hypersensitivity test. The hemolysin test used is that described in Methods in Immunology, edited by D. H. Campbell et al, W. A. Benjamin, New York 1963 pages 172-175, and measures humeral or antibody response. The delayed hypersensitivity test measures the effect of a test compound on the ability of a subject mouse to mount a cell-mediated immune response to the antigen, Mycobacterium tuberculosis H37Ra. The mouse is sensitized to the antigen by subcutaneous administration in the base of the tail. The development of the delayed hypersensitivity response may be measured at any time beginning six days after sensitization but is usually done on the ninth day as follows: The right hind paw is injected with purified protein derivative (tuberculin) while the left hind paw (control) receives physiological saline. Both paw volumes are measured after twenty-four hours and significant increase in the volume of the right hand paw is taken as a measure of an effective delayed hypersensitivity response. All compounds were administered by the subcutaneous route.
The D.H.S. (ED60) mg./kg. s.c. value appearing in column 3 is an expression of the effectiveness of the drug in reducing the edema that accompanies the cell-mediated immune response. It is a measure of the number of milligrams per kilogram of body weight of the drug administered subcutaneously which is required to reduce the edema of the cell-mediated immune response by 60% when compared to the control.

Consider `c1ccc2c(c1)nc(C1CCC1)c1nccn12` [Compound 128], for which the MIC in the test on Trichophyton rubrum was determined as 16 µg/mL (≈ 71.7 µM). In addition, in test [1], the change in vivo at 100 mg/kg is -39%.
For `C=CCCCCCCCCC(=O)Nc1ccccc1-n1ccnc1` [Compound 16], the MIC in test [2] was 4 µg/mL (≈ 12.3 µM); in the test on Trichophyton rubrum, 2 µg/mL (≈ 6.15 µM).
`CCCCCCCCCC(=O)Nc1ccccc1-n1ccnc1` [Compound 10]: the MIC (in test [2]; with Trichophyton rubrum) was 16 µg/mL (≈ 51 µM) each time. Further, the change in vivo at 100 mg/kg in test [1] is -30%.
What is called ED50 is the midpoint of the dose-response relation. Consider `C(=Cc1nc2ccccc2n2ccnc12)c1ccccc1` [Compound 127], for which the MIC (in test [2]; in the test on Trichophyton rubrum) was 16 µg/mL (≈ 59 µM) in each case. The median effective dose (ED50) in test [3] is more than 50 mg/kg. For the same compound, the ED60 in test [4] came to 36 mg/kg.
`CCCCCCCCCCCCCCCCCc1nc2ccccc2n2ccnc12` [Compound 120]: the MIC in the test on Trichophyton rubrum is 1 µg/mL (≈ 2.45 µM).
Same read-out and setting: the result for `O=C(Nc1ccccc1-n1ccnc1)c1cccc(Br)c1` [Compound 59] reads 100 µg/mL (≈ 292 µM).
With `COc1cc(OC)cc(-c2nc3ccccc3n3ccnc23)c1` [Compound 139], in test [2], the MIC was 100 µg/mL (≈ 328 µM). In addition, in test [3], the median effective dose (ED50) was 3 mg/kg. Also, the ED60 in test [4] is more than 50 mg/kg. Also, in test [1], the change in vivo at 100 mg/kg is -22% and the change in vivo at 400 mg/kg was -25%.
In the case of `CCCCCCCC(=O)Nc1ccccc1-n1ccnc1` [Compound 8], in test [2], the MIC was determined as 8 µg/mL (≈ 28 µM). The MIC in the test on Trichophyton rubrum worked out at 8 µg/mL (≈ 28 µM). Moreover, in test [1], the change in vivo at 100 mg/kg is -22% and the change in vivo at 400 mg/kg was -13%.
With `CCCCCCCc1nc2ccccc2n2ccnc12` [Compound 116], the MIC (in test [2]; in the test on Trichophyton rubrum) was 16 µg/mL (≈ 59.8 µM) each time. The ED50 in test [3] was more than 50 mg/kg. Moreover, in test [4], the ED60 worked out at 56 mg/kg. Moreover, the change in vivo at 100 mg/kg in test [1] worked out at 104%. In test [1], the change in vivo at 400 mg/kg is -18%.
On to `Fc1ccc(-c2nc3ccccc3n3ccnc23)cc1` [Compound 147], for which, in test [3], the median effective dose (ED50) amounted to 0.027 mg/kg. Moreover, in test [4], the ED60 amounted to 1.7 mg/kg. In test [1], the change in vivo at 100 mg/kg is -39%.
With `CCCCCCCCCc1nc2ccccc2n2ccnc12` [Compound 118], the MIC worked out at 256 µg/mL (≈ 867 µM) in test [2] and 4 µg/mL (≈ 13.5 µM) in the test on Trichophyton rubrum. The ED50 in test [3] is more than 50 mg/kg. In addition, the ED60 in test [4] turned out to be 43 mg/kg.
In the case of `CCCc1nc2ccccc2n2ccnc12` [Compound 112], the results for the MIC (in test [2]; with Trichophyton rubrum) were 128 µg/mL (≈ 606 µM) and 64 µg/mL (≈ 303 µM), respectively. For the same compound, in test [1], the change in vivo at 100 mg/kg was -17%. The change in vivo at 400 mg/kg in test [1] is -68%.
As to `Clc1cccc(-c2nc3ccccc3n3ccnc23)c1` [Compound 142], the MIC in test [2] was found to be 100 µg/mL (≈ 357 µM). Moreover, the ED50 in test [3] came out at 0.2 mg/kg. Further, the ED60 in test [4] amounted to 4.2 mg/kg.
Turning to `C=CCCCCCCCCc1nc2ccccc2n2ccnc12` [Compound 123], in the test on Trichophyton rubrum, the MIC was 2 µg/mL (≈ 6.51 µM). Besides, in test [1], the change in vivo at 100 mg/kg was 0% and the change in vivo at 400 mg/kg is -50%.
Take `CCCCCCCCC(=O)Nc1ccccc1-n1ccnc1` [Compound 9]: the MIC (in test [2]; in the test with Trichophyton rubrum) was 16 µg/mL (≈ 53.4 µM) in each case.
For `CCCCCCCCc1nc2ccccc2n2ccnc12` [Compound 117], the 50% effective dose (ED50) in test [3] is more than 50 mg/kg. Besides, the ED60 in test [4] turned out to be 46 mg/kg. Besides, in test [1], the change in vivo at 100 mg/kg was -7% and the change in vivo at 400 mg/kg is -18%.
Turning to `Fc1ccc(Nc2nc3ccccc3n3ccnc23)cc1` [Compound 182], the MIC in the test on Trichophyton rubrum is 100 µg/mL (≈ 359 µM). In test [3], the ED50 came to 1.1 mg/kg.
For the compound `CCCCCCCCCCCCCCCc1nc2ccccc2n2ccnc12` [Compound 119], the MIC in the test on Trichophyton rubrum is 8 µg/mL (≈ 21.1 µM).
Regarding `FC(F)(F)c1cccc(-c2nc3ccccc3n3ccnc23)c1` [Compound 136], the MIC in test [2] stood at 100 µg/mL (≈ 319 µM). For the same compound, the ED50 in test [3] is 2.7 mg/kg. The ED60 in test [4] was more than 50 mg/kg. In test [1], the change in vivo at 100 mg/kg was -9% and the change in vivo at 400 mg/kg is -25%.
As to `O=[N+]([O-])c1ccc(-c2nc3ccccc3n3ccnc23)cc1` [Compound 151], the MIC in the test with Trichophyton rubrum turned out to be 1 µg/mL (≈ 3.44 µM). The median effective dose (ED50) in test [3] was 0.3 mg/kg. Moreover, the ED60 in test [4] is 1.52 mg/kg.
